Measured values from patent US4396613A, “23-Ester derivatives of DMT and method of using same” (Eli Lilly and Company, priority 1981, dated 1983).
Values after ≈ are worked out from the molar mass of the structure shown.

Experiments:
Type in all cases: cell-based
[1] = test system: Staphylococcus aureus S13E; assay: standard agar-dilution assay (MIC); conditions: unit assumed
Procedure: (§1) The MIC's in Table II were determined by standard agar-dilution assays. The MIC's in Table III were obtained using a conventional broth-dilution microtiter test.

[2] = test system: Staphylococcus epidermidis EPI1; assay: standard agar-dilution assay (MIC); conditions: unit assumed
Procedure: as §1

[3] = test system: Staphylococcus epidermidis EPI2; assay: standard agar-dilution assay (MIC); conditions: unit assumed
Procedure: as §1

[4] = test system: Streptococcus pyogenes C203; assay: standard agar-dilution assay (MIC); conditions: unit assumed
Procedure: as §1

[5] = test system: Staphylococcus aureus X1.1; assay: standard agar-dilution assay (MIC); conditions: unit assumed
Procedure: as §1

[6] = test system: Haemophilus influenzae Holt; assay: standard agar-dilution assay (MIC); conditions: ampicillin-sensitive strain, unit assumed
Procedure: as §1

[7] = test system: Haemophilus influenzae R252; assay: standard agar-dilution assay (MIC); conditions: Haemophilus influenzae R252, ampicillin-resistant strain, unit assumed
Procedure: as §1

[8] = test system: Streptococcus Group D X66; assay: standard agar-dilution assay (MIC); conditions: unit assumed
Procedure: as §1

Streptococcus Group 9960 = assay: standard agar-dilution assay (MIC); conditions: unit assumed
Procedure: as §1

[9] = test system: Streptococcus pneumoniae Park I; conditions: agar dilution, unit assumed
Procedure: as §1

Mycoplasma gallisepticum = assay: conventional broth-dilution microtiter test (MIC); conditions: unit assumed
Procedure: as §1

Streptococcus sp. 80 = assay: conventional broth-dilution microtiter test (MIC); conditions: unit assumed
Procedure: as §1

Mycoplasma synoviae = assay: conventional broth-dilution microtiter test (MIC); conditions: unit assumed
Procedure: as §1

Mycoplasma hyorhinis = assay: conventional broth-dilution microtiter test (MIC); conditions: unit assumed
Procedure: as §1

[10] = test system: Pasteurella multocida 17E; assay: conventional broth-dilution microtiter test (MIC); conditions: bovine isolate, unit assumed
Procedure: as §1

Staphylococcus aureus = assay: conventional broth-dilution microtiter test (MIC); conditions: unit assumed
Procedure: as §1

[11] = test system: Pasteurella multocida 60A; assay: conventional broth-dilution microtiter test (MIC); conditions: avian isolate, unit assumed
Procedure: as §1

[12] = test system: Staphylococcus aureus V41; assay: standard agar-dilution assay (MIC); conditions: Staphylococcus aureus V41, penicillin-resistant strain, unit assumed
Procedure: as §1
^b Penicillinresistant strain

[13] = test system: Staphylococcus aureus X400; assay: standard agar-dilution assay (MIC); conditions: Staphylococcus aureus X400, methicillin-resistant strain, unit assumed
Procedure: as §1
^c Methicillinresistant-strain

| Compound | MIC [1] [µg/mL] | MIC [2] [µg/mL] | MIC [3] [µg/mL] | MIC [4] [µg/mL] | MIC [5] [µg/mL] | MIC [6] [µg/mL] | MIC [7] [µg/mL] | MIC [8] [µg/mL] | MIC (Streptococcus Group 9960) [µg/mL] | MIC [9] [µg/mL] | MIC (Mycoplasma gallisepticum) [µg/mL] | MIC (Streptococcus sp. 80) [µg/mL] | MIC (Mycoplasma synoviae) [µg/mL] | MIC (Mycoplasma hyorhinis) [µg/mL] | MIC [10] [µg/mL] | MIC (Staphylococcus aureus) [µg/mL] | MIC [11] [µg/mL] | MIC [12] [µg/mL] | MIC [13] [µg/mL] |
| --- | --- | --- | --- | --- | --- | --- | --- | --- | --- | --- | --- | --- | --- | --- | --- | --- | --- | --- | --- |
| CCC1OC(=O)CC(O)C(C)C(OC2OC(C)C(OC3CC(C)(O)C(O)C(C)O3)C(N(C)C)C2OC(C)=O)C(CC=O)CC(C)C(=O)C=CC(C)=CC1COC(=O)n1ccnc1 (stereo not drawn) [Compound 21] | 1 (≈ 1.14 µM) | 2 (≈ 2.28 µM) | 2 (≈ 2.28 µM) | 0.5 (≈ 0.569 µM) | 1 (≈ 1.14 µM) | 16 (≈ 18.2 µM) | 8 (≈ 9.11 µM) | 2 (≈ 2.28 µM) | 1 (≈ 1.14 µM) | 0.125 (≈ 0.142 µM) | 0.78 (≈ 0.888 µM) | 0.78 (≈ 0.888 µM) | 0.78 (≈ 0.888 µM) | 1.56 (≈ 1.78 µM) | 12.5 (≈ 14.2 µM) | 6.25 (≈ 7.12 µM) | 12.5 (≈ 14.2 µM) | 2 (≈ 2.28 µM) | 2 (≈ 2.28 µM) |
| CCC1OC(=O)CC(O)C(C)C(OC2OC(C)C(OC3CC(C)(O)C(O)C(C)O3)C(N(C)C)C2OC(C)=O)C(CC=O)CC(C)C(=O)C=CC(C)=CC1COC(=O)C12CC3CC(CC(C3)C1)C2 (stereo not drawn) [Compound 23] | 2 (≈ 2.11 µM) | 2 (≈ 2.11 µM) | 4 (≈ 4.23 µM) | 2 (≈ 2.11 µM) | 2 (≈ 2.11 µM) | > 128 | > 128 | 4 (≈ 4.23 µM) | 4 (≈ 4.23 µM) | 1 (≈ 1.06 µM) | 6.25 (≈ 6.61 µM) | < 0.78 | 1.56 (≈ 1.65 µM) | 25 (≈ 26.4 µM) | 50 (≈ 52.8 µM) | 6.25 (≈ 6.61 µM) | > 50 | 2 (≈ 2.11 µM) | 2 (≈ 2.11 µM) |
| CCC1OC(=O)CC(O)C(C)C(OC2OC(C)C(OC3CC(C)(O)C(O)C(C)O3)C(N(C)C)C2OC(C)=O)C(CC=O)CC(C)C(=O)C=CC(C)=CC1COC(=O)OC (stereo not drawn) [Compound 24] | 0.5 (≈ 0.594 µM) | 0.5 (≈ 0.594 µM) | 0.5 (≈ 0.594 µM) | 0.25 (≈ 0.297 µM) | 0.5 (≈ 0.594 µM) | 16 (≈ 19 µM) | 8 (≈ 9.5 µM) | 0.5 (≈ 0.594 µM) | 0.5 (≈ 0.594 µM) | 0.06 (≈ 0.0713 µM) | 0.78 (≈ 0.926 µM) | 0.78 (≈ 0.926 µM) | 0.78 (≈ 0.926 µM) | 1.56 (≈ 1.85 µM) | 6.25 (≈ 7.42 µM) | 3.12 (≈ 3.71 µM) | 12.5 (≈ 14.8 µM) | 0.5 (≈ 0.594 µM) | 0.5 (≈ 0.594 µM) |
| CCC1OC(=O)CC(O)C(C)C(OC2OC(C)C(OC3CC(C)(O)C(O)C(C)O3)C(N(C)C)C2O)C(CC=O)CC(C)C(=O)C=CC(C)=CC1COC(=O)NCCCCCCCCN (stereo not drawn) [Compound 27] | 4 (≈ 4.39 µM) | 2 (≈ 2.19 µM) | 4 (≈ 4.39 µM) | 1 (≈ 1.1 µM) | 2 (≈ 2.19 µM) | 32 (≈ 35.1 µM) | 32 (≈ 35.1 µM) | 4 (≈ 4.39 µM) | 4 (≈ 4.39 µM) | 0.25 (≈ 0.274 µM) | 0.78 (≈ 0.855 µM) | 0.78 (≈ 0.855 µM) | 3.12 (≈ 3.42 µM) | 3.12 (≈ 3.42 µM) | 25 (≈ 27.4 µM) | 6.25 (≈ 6.85 µM) | 50 (≈ 54.8 µM) | 2 (≈ 2.19 µM) | 8 (≈ 8.77 µM) |
| CCC1OC(=O)CC(O)C(C)C(OC2OC(C)C(OC3CC(C)(O)C(O)C(C)O3)C(N(C)C)C2O)C(CC=O)CC(C)C(=O)C=CC(C)=CC1COC(=O)N1CCC(O)CC1 (stereo not drawn) [Compound 28] | 2 (≈ 2.3 µM) | 0.5 (≈ 0.575 µM) | 2 (≈ 2.3 µM) | 0.25 (≈ 0.288 µM) | 1 (≈ 1.15 µM) | 8 (≈ 9.21 µM) | 16 (≈ 18.4 µM) | 1 (≈ 1.15 µM) | 1 (≈ 1.15 µM) | 0.125 (≈ 0.144 µM) | 0.39 (≈ 0.449 µM) | 0.39 (≈ 0.449 µM) | 0.78 (≈ 0.898 µM) | 0.78 (≈ 0.898 µM) | 12.5 (≈ 14.4 µM) | 1.56 (≈ 1.8 µM) | 25 (≈ 28.8 µM) | 1 (≈ 1.15 µM) | 2 (≈ 2.3 µM) |
| CCC1OC(=O)CC(O)C(C)C(OC2OC(C)C(OC3CC(C)(O)C(O)C(C)O3)C(N(C)C)C2O)C(CC=O)CC(C)C(=O)C=CC(C)=CC1COC(=O)NCCN1CCOCC1 (stereo not drawn) [Compound 29] | 2 (≈ 2.23 µM) | 1 (≈ 1.11 µM) | 2 (≈ 2.23 µM) | 0.5 (≈ 0.557 µM) | 1 (≈ 1.11 µM) | 16 (≈ 17.8 µM) | 16 (≈ 17.8 µM) | 2 (≈ 2.23 µM) | 2 (≈ 2.23 µM) | 0.125 (≈ 0.139 µM) | 0.39 (≈ 0.434 µM) | 0.78 (≈ 0.868 µM) | 1.56 (≈ 1.74 µM) | 6.25 (≈ 6.96 µM) | 12.5 (≈ 13.9 µM) | 1.56 (≈ 1.74 µM) | 25 (≈ 27.8 µM) | 1 (≈ 1.11 µM) | 4 (≈ 4.45 µM) |
